{
  "source": "patent US8580918B2",
  "about": "“Peptidic GLP-2 agonists” (Ferring B.V., priority 2009, dated 2013)",
  "note": "Where a SMILES comes first, the peptide text is derived from it. [ ]: non-standard residue; d: D form. The star is where a group is joined. X1 = NC(=O)CCOCCOCCOCCOCCOCCOCCNC(=O)COCC(=O)NCCCOCCOCCOCCCN*; X2 = NC(=O)COCC(=O)NCCCOCCOCCOCCCN*; Nle = CCCC[C@H](N)C(=O)O; NHBn = c1ccc(CN*)cc1; NHiBu = CC(C)CN*",
  "data": [
    {"test": "Pharmacokinetics in rats after intravenous bolus injection (systemic clearance)", "type": "in vivo", "details": "rat, plasma, 0.2 mg FB/kg, adult male Sprague-Dawley rats, i.v. bolus, dose 0.20 mg FB/kg, read-out: CL (ml/kg/min) Average", "in_short": "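Adult male Sprague-Dawley rats (3-4, doubly cannulated) given IV jugular bolus at 0.1-1.0 mg/kg; serial carotid blood to K2EDTA plasma, LC/MS/MS quantitation. CL = dose/kg divided by AUC∞ (noncompartmental, trapezoid); mean ± SD.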", "units": {"clearance": "mL/kg/min"}, "values": [
      {"smiles": "CCCC[C@H](NC(=O)[C@H](CCC(=O)O)NC(=O)[C@H](CC(=O)O)NC(=O)[C@H](CO)NC(=O)[C@H](Cc1ccccc1)NC(=O)[C@H](CO)NC(=O)CNC(=O)[C@H](CC(=O)O)NC(=O)CNC(=O)[C@@H](N)Cc1c[nH]cn1)C(=O)N[C@H](Cc1ccccc1)C(=O)N[C@H](C(=O)N[C@H](C(=O)N[C@@H](CC(C)C)C(=O)N[C@@H](CC(=O)O)C(=O)N[C@@H](CC(C)C)C(=O)N[C@@H](CC(C)C)C(=O)N[C@@H](C)C(=O)N[C@@H](C)C(=O)N[C@@H](CCCNC(=N)N)C(=O)N[C@@H](CC(=O)O)C(=O)N[C@@H](Cc1ccccc1)C(=O)N[C@H](C(=O)N[C@@H](CC(N)=O)C(=O)N[C@@H](Cc1c[nH]c2ccccc12)C(=O)N[C@@H](CC(C)C)C(=O)N[C@H](C(=O)N[C@@H](CCC(N)=O)C(=O)N[C@H](C(=O)N[C@@H](CCCCN)C(=O)N[C@H](C(=O)N[C@H](C(=O)N[C@@H](CC(=O)O)C(=O)NCC(C)C)[C@@H](C)O)[C@@H](C)CC)[C@@H](C)O)[C@@H](C)CC)[C@@H](C)CC)[C@@H](C)CC)[C@@H](C)O", "note": "[Compound 57, [Gly2,Nle10,D-Phe11,Leu16] hGLP-2(1-33)-NH-isobutyl] (H-HGDGSFSDE[Nle][dF]TILDLLAARDFINWLIQTKITD-NHiBu)", "clearance": 0.17},
      {"smiles": "CCCC[C@H](NC(=O)[C@H](CCC(=O)O)NC(=O)[C@H](CC(=O)O)NC(=O)[C@H](CO)NC(=O)[C@H](Cc1ccccc1)NC(=O)[C@H](CO)NC(=O)CNC(=O)[C@H](CC(=O)O)NC(=O)CNC(=O)[C@@H](N)Cc1c[nH]cn1)C(=O)N[C@H](Cc1ccccc1)C(=O)N[C@H](C(=O)N[C@H](C(=O)N[C@@H](CC(C)C)C(=O)N[C@@H](CC(=O)O)C(=O)N[C@@H](CC(C)C)C(=O)N[C@@H](CC(C)C)C(=O)N[C@@H](C)C(=O)N[C@@H](C)C(=O)N[C@@H](CCCNC(=N)N)C(=O)N[C@@H](CC(=O)O)C(=O)N[C@@H](Cc1ccccc1)C(=O)N[C@H](C(=O)N[C@@H](CC(N)=O)C(=O)N[C@@H](Cc1c[nH]c2ccccc12)C(=O)N[C@@H](CC(C)C)C(=O)N[C@H](C(=O)N[C@@H](CCC(N)=O)C(=O)N[C@H](C(=O)N[C@@H](CCCCN)C(=O)N[C@H](C(=O)N[C@H](C(=O)N[C@@H](CC(=O)O)C(=O)NCc1ccccc1)[C@@H](C)O)[C@@H](C)CC)[C@@H](C)O)[C@@H](C)CC)[C@@H](C)CC)[C@@H](C)CC)[C@@H](C)O", "note": "[Compound 58, [Gly2,Nle10,D-Phe11,Leu16] hGLP-2(1-33)-NH-Benzyl] (H-HGDGSFSDE[Nle][dF]TILDLLAARDFINWLIQTKITD-NHBn)", "clearance": 0.1},
      {"smiles": "CCCC[C@H](NC(=O)[C@H](CCC(=O)O)NC(=O)[C@H](CC(=O)O)NC(=O)[C@H](CO)NC(=O)[C@H](Cc1ccccc1)NC(=O)[C@H](CO)NC(=O)CNC(=O)[C@H](CC(=O)O)NC(=O)CNC(=O)[C@@H](N)Cc1cnc[nH]1)C(=O)N[C@H](Cc1ccccc1)C(=O)N[C@H](C(=O)N[C@H](C(=O)N[C@@H](CC(C)C)C(=O)N[C@@H](CC(=O)O)C(=O)N[C@@H](CC(C)C)C(=O)N[C@@H](CC(C)C)C(=O)N[C@@H](C)C(=O)N[C@@H](C)C(=O)N[C@@H](CCCNC(=N)N)C(=O)N[C@@H](CC(=O)O)C(=O)N[C@@H](Cc1ccccc1)C(=O)N[C@H](C(=O)N[C@@H](CC(N)=O)C(=O)N[C@@H](Cc1c[nH]c2ccccc12)C(=O)N[C@@H](CC(C)C)C(=O)N[C@H](C(=O)N[C@@H](CCC(N)=O)C(=O)N[C@H](C(=O)N[C@@H](CCCCN)C(=O)N[C@H](C(=O)N[C@H](C(=O)N[C@@H](CC(=O)O)C(=O)O)[C@@H](C)O)[C@@H](C)CC)[C@@H](C)O)[C@@H](C)CC)[C@@H](C)CC)[C@@H](C)CC)[C@@H](C)O", "note": "[Compound 59, [Gly2,Nle10,D-Phe11,Leu16] hGLP-2(1-33)-OH] (H-HGDGSFSDE[Nle][dF]TILDLLAARDFINWLIQTKITD-OH)", "clearance": 0.22},
      {"smiles": "CCCC[C@H](NC(=O)[C@H](CCC(=O)O)NC(=O)[C@H](CC(=O)O)NC(=O)[C@H](CO)NC(=O)[C@H](Cc1ccccc1)NC(=O)[C@H](CO)NC(=O)CNC(=O)[C@H](CC(=O)O)NC(=O)CNC(=O)[C@@H](N)Cc1c[nH]cn1)C(=O)N[C@H](Cc1ccccc1)C(=O)N[C@H](C(=O)N[C@H](C(=O)N[C@@H](CC(C)C)C(=O)N[C@@H](CC(=O)O)C(=O)N[C@@H](Cc1ccccc1)C(=O)N[C@@H](CC(C)C)C(=O)N[C@@H](C)C(=O)N[C@@H](C)C(=O)N[C@@H](CCCNC(=N)N)C(=O)N[C@@H](CC(=O)O)C(=O)N[C@@H](Cc1ccccc1)C(=O)N[C@H](C(=O)N[C@@H](CC(N)=O)C(=O)N[C@@H](Cc1c[nH]c2ccccc12)C(=O)N[C@@H](CC(C)C)C(=O)N[C@H](C(=O)N[C@@H](CCC(N)=O)C(=O)N[C@H](C(=O)N[C@@H](CCCCN)C(=O)N[C@H](C(=O)N[C@H](C(=O)N[C@@H](CC(=O)O)C(=O)NCCCOCCOCCOCCCNC(=O)COCC(N)=O)[C@@H](C)O)[C@@H](C)CC)[C@@H](C)O)[C@@H](C)CC)[C@@H](C)CC)[C@@H](C)CC)[C@@H](C)O", "note": "[Compound 60, [Gly2,Nle10,D-Phe11,Phe16] hGLP-2(1-33)-NH—CH2—((CH2)2O)3—(CH2)3—NH—C(O)—CH2—O—CH2—C(O)—NH2] (H-HGDGSFSDE[Nle][dF]TILDFLAARDFINWLIQTKITD-X2)", "clearance": 0.29},
      {"smiles": "CCCC[C@H](NC(=O)[C@H](CCC(=O)O)NC(=O)[C@H](CC(=O)O)NC(=O)[C@H](CO)NC(=O)[C@H](Cc1ccccc1)NC(=O)[C@H](CO)NC(=O)CNC(=O)[C@H](CC(=O)O)NC(=O)CNC(=O)[C@@H](N)Cc1c[nH]cn1)C(=O)N[C@H](Cc1ccccc1)C(=O)N[C@H](C(=O)N[C@H](C(=O)N[C@@H](CC(C)C)C(=O)N[C@@H](CC(=O)O)C(=O)N[C@@H](Cc1ccccc1)C(=O)N[C@@H](CC(C)C)C(=O)N[C@@H](C)C(=O)N[C@@H](C)C(=O)N[C@@H](CCCNC(=N)N)C(=O)N[C@@H](CC(=O)O)C(=O)N[C@@H](Cc1ccccc1)C(=O)N[C@H](C(=O)N[C@@H](CC(N)=O)C(=O)N[C@@H](Cc1c[nH]c2ccccc12)C(=O)N[C@@H](CC(C)C)C(=O)N[C@H](C(=O)N[C@@H](CCC(N)=O)C(=O)N[C@H](C(=O)N[C@@H](CCCCN)C(=O)N[C@H](C(=O)N[C@H](C(=O)N[C@@H](CC(=O)O)C(=O)NCCCOCCOCCOCCCNC(=O)COCC(=O)NCCOCCOCCOCCOCCOCCOCCC(N)=O)[C@@H](C)O)[C@@H](C)CC)[C@@H](C)O)[C@@H](C)CC)[C@@H](C)CC)[C@@H](C)CC)[C@@H](C)O", "note": "[Compound 61, [Gly2,Nle10,D-Phe11,Phe16] hGLP-2(1-33)-NH—CH2—((CH2)2O)3—(CH2)3—NH—C(O)—CH2—O—CH2—C(O)—NH—((CH2)2O)6—(CH2)2—C(O)—NH2] (H-HGDGSFSDE[Nle][dF]TILDFLAARDFINWLIQTKITD-X1)", "clearance": 0.16}
    ]}
  ]
}
